Measurements published in patent US12527753B2, “Cysteamine for the treatment, mitigation and prevention of coronaviral, e.g., SARS-CoV-2, infections” (The Regents of the University of Michigan, priority 2020, dated 2026).
Counter-ions that a name gives are not always drawn. Like-named read-outs stand apart in the source and are kept apart here.

Key:
SARS-CoV-2-WA1 strain = experiment: Huh7 cellular infectivity assay with SARS-CoV-2 (high content bioimaging); type: cell-based; details: for efficacy in preventing SARS-CoV-2 infection: Huh-7 cells, normalized to infected and uninfected vehicle wells
Method: (§1) FIGS. 3A-D. Cysteamine efficacy in the Huh7 cellular infectivity assay with SARS-CoV-2-WA1 strain. Cells are infected at 0.2 MOI and are incubated for 48 hours to allow for the initial infection and propagation to surrounding cells. […] All concentrations of cysteamine (50, 20, 8, 3, 1.5 micromolar) tested were non-cytotoxic indicating an acceptable therapeutic index.
Experiments were conducted during development of embodiments herein using a fully developed high-content screening pipeline to screen approved drugs against SARS Cov-2, the causative agent of COVID-19. A high throughput screen of FDA-approved drugs was conducted to determine the efficacy in a SARS-CoV-2 infectivity assay. This high content bioimaging-based assay has proven to be highly robust and informative, and clearly differentiates between infected and uninfected cells (FIG. 2). This high-content screen identifies individual agents effective in reducing viral infectivity or replication by imaging individual SARS Cov-2 infected cells. A screen of 1,200 compounds was conducted through the validated assay platform. Remdesivir, a viral replication inhibitor, was selected as a positive control, which results in 100% efficacy.
Cysteamine was evaluated for its antiviral effects at 5 doses with 9 replicates at each dose for a total of 45 independent experiments. Automated image analysis was performed to quantitate the number and percentage of infected cells and that was normalized to the infected and vehicle (DMSO) treated wells and the uninfected and vehicle treated wells representing 0-100% efficacy, as shown on the y-axis dose response plot for cysteamine anti-SARS-CoV-2 (FIG. 3).

epithelial fibroblasts = details: concentrations up to 10 μM; cited from earlier work
[1] = tested on: HTLV-IIIB strain of HIV-1; details: 100 μM; CEM cells; cited from earlier work
[2] = aqueous 0.1% and 0.5%, topical; cited from earlier work
[3] = tested on: HIV-1 (4 primary isolates and 2 laboratory strains); details: cited from earlier work
[4] = aqueous 0.1% and 0.5% (10 mM and 50 mM); cited from earlier work
Huh7 cells = experiment: Cytotoxicity in the Huh7 infectivity assay; type: cell-based; details: 50, 20, 8, 3, 1.5 micromolar
Method: as §1

SARS-CoV-2 WA wild type = experiment: Virus pre-incubation, plaque formation in TMPRSS cells; type: cell-based; details: Severe acute respiratory syndrome coronavirus 2, 2 h; 5 mM, 120 min incubation

Compound	viral infection relative to the negative control (SARS-CoV-2-WA1 strain; 8 micromolar, Huh7 cells, 0.2 MOI, 48 hours, syncytia present)	infected cells / nucleocapsid staining (SARS-CoV-2-WA1 strain; 20 micromolar, Huh7 cells, 0.2 MOI, 48 hours)	elimination of SARS-CoV-2 infection (SARS-CoV-2-WA1 strain; 50 micromolar, Huh7 cells, 0.2 MOI, 48 hours)	EC50 (SARS-CoV-2-WA1 strain; Huh7 cells, 0.2 MOI, 48 hours, read-out: EC50 (concentration at 50% effect))	efficacy in preventing SARS-CoV-2 infection (SARS-CoV-2-WA1 strain)	effect on growth rate (epithelial fibroblasts)	inhibition of cytotoxicity [1]	reduction of corneal cystine crystals [2]	tolerability in chronic use [2]	viral inhibition ([3]; 200 μM, lymphocytes)	viral inhibition ([3]; 100 microM, macrophages)	antiviral effect of combination ([3]; in conjunction with zidovudine or didanosine, without concomitant increases in toxicity)	safety via the Draize test [4]	cytotoxicity (Huh7 cells)	inhibition at 5000 µM (SARS-CoV-2 WA wild type)
2-aminoethanethiol [cysteamine]	reduced viral infection relative to the negative control	small percentage of infected cells that have a diminished nucleocapsid staining	100%	~5 µM	~100%	no effect on growth rate	100%	effective in reducing the cystine crystals	well-tolerated	More than 90%	More than 90%	additive antiviral effect	safe	non-cytotoxic	–
NCCS [cysteamine HCl]	–	–	–	–	–	–	–	–	–	–	–	–	–	–	85 to 95%
CCC(CC)COC(=O)[C@H](C)N[P@](=O)(OC[C@H]1O[C@@](C#N)(c2ccc3c(N)ncnn23)[C@H](O)[C@@H]1O)Oc1ccccc1 [Remdesivir]	–	–	–	–	100%	–	–	–	–	–	–	–	–	–	–
